Measured values from patent US10201587B2, “Methods of inhibiting and treating biofilms using glycopeptide antibiotics” (MELINTA THERAPEUTICS, INC., priority 2008, dated 2019).
Converted amounts (≈) assume the structure as drawn. Like-named read-outs stand apart in the source and are kept apart here.

Experiments:
[1] = test system: MRSA ATCC 33591; experiment: MBEC system in vitro biofilm (MIC and MBEC); assay type: cell-based, S. aureus; details: for MBEC: 24-hour biofilm, 24 hours of exposure; for MIC: Staphylococcus aureus
Procedure: (§1) The commercially-available MBEC™ system (Innovotech; Edmonton, AB, Canada) was used following the manufacturer's protocol (17) to establish in vitro biofilms of S. aureus and to determine the minimal biofilm eradication concentration (MBEC) of oritavancin and comparator antimicrobial agents. The MBEC represents the concentration of antimicrobial agent required to sterilize the biofilm after 24 hours of exposure. The MBEC™ system also allows for the determination of the minimal inhibitory concentration (MIC) of the test agent against planktonic cells under the conditions of the biofilm assay.
(§2) 150 μL of bacterial inocula at 10^7 CFU/mL in tryptic soy broth was aliquoted into each well of an MBEC plate. Biofilms were established for 24 hours in a rotary incubator at 37° C. and 150 rpm. For experiments involving 72-hour biofilms, peg lids were transferred each day to 96-well plates containing 150 μL/well of fresh tryptic soy broth and incubated another 24 hours. Peg lids with established biofilms were washed once in sterile saline (200 μL/well) and then placed in plates containing antimicrobial agents diluted in CAMHB (200 μL/well). Antimicrobial agents were serially diluted in CAMHB in 96-well plates and peg lids were exposed for 24 hours or for the indicated times. Following antimicrobial challenge, peg lids were washed once in sterile saline then placed in recovery plates containing CAMHB (200 μL/well). The recovery plates were sonicated for 5 minutes in an ultrasonic sonicating bath (VWR Aquasonic model 550D) at the maximum setting then incubated for 24 hours and the MBECs recorded. MBECs were determined from at least three independent experiments; results represent the ranges of MBECs obtained. To enumerate the biofilm colony forming units (CFUs) on individual control pegs, pegs were broken off the lid using sterile forceps placed in 1 ml sterile saline, sonicated for 5 min and vortexed for 1 min at the highest setting. Bacteria were then enumerated by serial-dilution plating.
(§3) To prevent loss of oritavancin due to binding to vessel surfaces (3), the CLSI now recommends inclusion of 0.002% polysorbate-80 for oritavancin broth microdilution MIC determinations (9).

[2] = test system: MSSA ATCC 29213; experiment: MBEC system in vitro biofilm (MIC and MBEC); assay type: cell-based, S. aureus; details: for MBEC: 24-hour biofilm, 24 hours of exposure; for MIC: Staphylococcus aureus
Procedure: as §1, §2, §3

[3] = test system: VRSA VRS5; experiment: MBEC system in vitro biofilm (MIC and MBEC); assay type: cell-based, S. aureus; details: for MBEC: 24-hour biofilm, 24 hours of exposure; for MIC: Staphylococcus aureus, VRSA
Procedure: as §1, §2, §3

[4] = test system: MRSA ATCC 33591; experiment: Time-kill in nutrient-depleted CAMHB; assay type: cell-based, S. aureus; details: stationary-phase, 24-hour incubation, fCmax
Procedure: (§4) Nutrient-depleted CAMHB from each respective strain was prepared by 3 rounds of inoculation of CAMHB with exponential-phase bacteria, incubation overnight at 37° C. with rotation (225 rpm) and centrifugation (8000×g for 30 minutes) to remove bacteria. After the final round of inoculation, growth and centrifugation, the pH of the nutrient-depleted CAMHB was adjusted to pH=7.0 and the spent medium was filter-sterilized using a […] membrane (Corning Incorporated, Corning, N.Y.).
(§5) Nutrient-depleted CAMHB containing diluted antimicrobial agents was inoculated with stationary-phase bacteria from overnight cultures of the S. aureus strains at approximately 10^7 colony-forming units (CFU)/mL. Other experiments compared the killing of stationary- and exponential-phase S. aureus ATCC 29213 when inoculated into nutrient-depleted CAMHB containing the test agents. For assays involving daptomycin, nutrient-depleted CAMHB was supplemented with 50 μg/ml CaCl2 (8). All time-kill studies were performed in 96-well deep-well plates at 37° C. with rotation (225 rpm) in a total volume of 750 μL. Bacteria were enumerated by serial-dilution plating. Bacteriostatic and bactericidal activity of the antimicrobial agents were defined as a reduction in viable cell counts of <3 or ≥3 log at 24 hours relative to the starting inoculum, respectively (33). Experiments were repeated at least three times and produced similar results; results from one experiment are presented.

[5] = test system: VRSA VRS5; experiment: Time-kill in nutrient-depleted CAMHB; assay type: cell-based, S. aureus; details: stationary-phase, 24-hour incubation, fCmax
Procedure: as §4, §5

[6] = test system: S. epidermidis ATCC 35984; experiment: MBEC plate biofilm eradication, agents in combination; assay type: cell-based
Excerpt: The following strains were used for in vitro biofilm studies: vancomycin (VAN)-susceptible Enterococcus faecalis ATCC 29212 (VSE), VAN-resistant E. faecalis ATCC 51299 (VanB VRE), E. faecium ATCC 51559 (VanA VRE), S. epidermidis ATCC 12228 and the slime-producing strain S. epidermidis ATCC 35984. Biofilms were established in MBEC™ Physiology & Genetics Assay plates (Innovotech; Edmonton, Canada).

[7] = test system: S. aureus ATCC 29213; experiment: Short duration (2 h) time-kill in membrane assay buffer; assay type: cell-based; details: for killing over short time course: fCmax
Procedure: Short duration (2 h) time-kill studies were performed in membrane assay buffer (see below) to characterize the killing of S. aureus ATCC 29213 under conditions used in the membrane depolarization and permeability assays. Exponential- and stationary-phase S. aureus ATCC 29213 cells were diluted to an OD600=0.005 (approx 10^6 CFU/mL) in membrane assay buffer (10 mM HEPES-C1, pH 7.5, 50 μg/mL CaCl2) with or without 5 mM glucose, respectively. Experiments were initiated by the addition of antimicrobial agents at the indicated concentrations and bacteria were enumerated by serial-dilution plating.

[8] = cited from earlier work; for estimated fCmax in plasma: human, in vivo, 200 mg
[9] = test system: S. aureus ATCC 29213; experiment: Membrane permeability, SYTO-9/propidium iodide fluorescence; assay type: cell-based; details: 30 min
Procedure: For membrane permeability assays, bacteria were prepared identically as described above for the membrane depolarization assay with the exception that SYTO-9 and propidium iodide (Invitrogen Corporation) were added at 5 μM and 30 μM, respectively. Experiments were repeated three times and produced similar results; results from one assay are presented.

[10] = test system: S. aureus ATCC 29213; experiment: Membrane depolarization, DiSC3(5) fluorescence; assay type: cell-based; details: 30 min
Procedure: Bacteria were grown overnight in CAMHB and sub-cultured the following day in CAMHB to exponential phase (OD600≈0.25). Exponential- and stationary-phase cells were washed in membrane assay buffer with or without 5 mM glucose, respectively, and resuspended at an OD600=0.25. DiSC3(5) was added to a final concentration of 1.5 μM and the solution was incubated in the dark at ambient temperature for 30 minutes to allow loading of the fluorescent dye into cell membranes. After the loading period, cells were diluted 50-fold (OD600=0.005) in depolarization buffer with or without glucose for exponential- or stationary-phase cells, respectively. Assays were initiated by the addition of antimicrobial agents over a range of concentrations and were monitored in real time by fluorescence spectroscopy (λex=612, λem=665) for a period of 30 minutes. […] Experiments were repeated three times and produced similar results; results from one assay are presented.

[11] = test system: exponentially-growing S. aureus (MSSA, MRSA, VRSA); details: actively dividing cells; cited from earlier work
[12] = test system: stationary-phase MRSA ATCC 43300; experiment: Ultrastructure by transmission electron microscopy of thin sections; assay type: cell-based, S. aureus; details: 3 hours in nutrient-depleted CAMHB; 1 μg/mL oritavancin, 16 μg/mL vancomycin
Procedure: Bacteria were fixed in 2.5% glutaraldehyde to cross-link proteins and help preserve morphological structure. Prior to embedding, the samples were treated with fresh 2.5% (vol/vol) glutaraldehyde in HEPES buffer (pH, 6.8) for 2 hours. The samples were then post-fixed in 2.0% (wt/vol) osmium tetroxide, followed by en bloc-staining with 2.0% (wt/vol) uranyl acetate, as a heavy-metal stain, to add contrast to the cells. The cells were then dehydrated through a series of ethanol washes then embedded in LR White resin. Once polymerized by curing, each culture sample was thin sectioned and stained by uranyl acetate and lead citrate so as to view the internal cellular constituents and the juxtaposition of cell envelope layers such as the plasma membrane and cell wall. Transmission electron microscopy was used to view the thin sections using a Philips CM10 under standard operating conditions at 100 kV.

[13] = test system: MSSA ATCC 29213; experiment: Time-kill in nutrient-depleted CAMHB; assay type: cell-based, S. aureus; details: 24 hour time point, estimated fCmax
Procedure: as §4, §5

[14] = oritavancin without polysorbate-80
[15] = planktonic cells shed from 24-hour peg biofilms, oritavancin without polysorbate-80, read-out: MIC

| MIC [1, 15] [µg/mL] | MIC [2, 15] [µg/mL] | MIC [3, 15] [µg/mL] | SMILES | MBEC [1, 14] [µg/mL] | MBEC [2, 14] [µg/mL] | MBEC [3, 14] [µg/mL] | killing over short time course ([7]; exponential-phase cells) | estimated fCmax in plasma [8] [µg/mL] | membrane permeability (SYTO-9 fluorescence) ([9]; exponential-phase cells) | membrane permeability (SYTO-9 fluorescence) ([9]; stationary-phase cells) | dissipation of membrane potential (DiSC3(5) fluorescence) ([10]; exponential-phase cells) | dissipation of membrane potential (DiSC3(5) fluorescence) ([10]; stationary-phase cells) | also measured |
| --- | --- | --- | --- | --- | --- | --- | --- | --- | --- | --- | --- | --- | --- |
| 2 to 4 (≈ 5.93 to 11.9 µM) | 8 (≈ 23.7 µM) | 4 to 8 (≈ 11.9 to 23.7 µM) | CC(=O)NC[C@H]1CN(c2ccc(N3CCOCC3)c(F)c2)C(=O)O1 [Linezolid, linezolid] | >128 | >128 | >128 |  |  |  |  |  |  | MIC ([2]; 72-hour biofilms, read-out: planktonic MIC): 8 to 16 µg/mL (≈ 23.7 to 47.4 µM); effect on bacterial cell numbers [4]: no effect; effect on bacterial cell numbers [5]: no effect |
|  |  |  | CO[C@H]1/C=C/O[C@@]2(C)Oc3c(C)c(O)c4c(c3C2=O)C2=NC3(CCN(CC(C)C)CC3)NC2=C(NC(=O)/C(C)=C\C=C\[C@H](C)[C@H](O)[C@@H](C)[C@@H](O)[C@@H](C)[C@H](OC(C)=O)[C@@H]1C)C4=O [RFB, rifabutin] |  |  |  |  |  |  |  |  |  | MBEC in combination ([6]; combination of ORI and RFB required for sterilization): 0.125 mg/L |
|  |  |  | CCCCCCCCCC(=O)N[C@@H](Cc1c[nH]c2ccccc12)C(=O)N[C@H](CC(N)=O)C(=O)N[C@@H](CC(=O)O)C(=O)N[C@@H]1C(=O)NCC(=O)N[C@@H](CCCN)C(=O)N[C@@H](CC(=O)O)C(=O)N[C@H](C)C(=O)N[C@@H](CC(=O)O)C(=O)NCC(=O)N[C@H](CO)C(=O)N[C@@H]([C@H](C)CC(=O)O)C(=O)N[C@@H](CC(=O)c2ccccc2N)C(=O)O[C@@H]1C [Daptomycin, daptomycin] |  |  |  | Rapid killing | 4 | loss of fluorescence | no effect | small effect | did not effect changes | reduction in CFU ([7]; stationary-phase cells, within the 2-hour time period, oritavancin at fCmax 800, daptomycin at fCmax): 0.7 log |
|  |  |  | COc1c(N2C[C@@H]3CCCN[C@@H]3C2)c(F)cc2c(=O)c(C(=O)O)cn(C3CC3)c12 [MOX, moxifloxacin] |  |  |  |  |  |  |  |  |  | MBEC in combination ([6]; combination of ORI and MOX required for sterilization): 4 mg/L |
| < 0.03 | < 0.02 | 0.03 to 0.06 (≈ 0.0365 to 0.0729 µM) | CO[C@H]1/C=C/O[C@@]2(C)Oc3c(C)c(O)c4c(O)c(c(/C=N/N5CCN(C)CC5)c(O)c4c3C2=O)NC(=O)/C(C)=C\C=C\[C@H](C)[C@H](O)[C@@H](C)[C@@H](O)[C@@H](C)[C@H](OC(C)=O)[C@@H]1C [Rifampicin, rifampicin] | 0.25 to 4 | 4 | 4 |  | 2 |  |  |  |  |  |
|  |  |  | CN[C@H](CC(C)C)C(=O)N[C@H]1C(=O)N[C@@H](CC(N)=O)C(=O)N[C@H]2C(=O)N[C@H]3C(=O)N[C@H](C(=O)N[C@H](C(=O)O)c4cc(O)cc(O)c4-c4cc3ccc4O)[C@H](O)c3ccc(c(Cl)c3)Oc3cc2cc(c3O[C@@H]2O[C@H](CO)[C@@H](O)[C@H](O)[C@H]2O[C@H]2C[C@](C)(N)[C@H](O)[C@H](C)O2)Oc2ccc(cc2Cl)[C@H]1O [Vancomycin, vancomycin] | ≥128 | >128 | >128 | did not effect any change |  | no effect on fluorescence | no effect on fluorescence | no effect on membrane potential | no effect on membrane potential | time required to exert bactericidal activity [11]: 24 h; killing over short time course ([7]; stationary-phase cells): did not effect any change; estimated free trough concentration in plasma ([8]; humans, standard dose (oritavancin 200 mg)): 4 µg/mL; MIC ([1]; 24 h): 1 to 2 µg/mL (≈ 0.69 to 1.38 µM); MIC ([2]; 24 h): 1 µg/mL (≈ 0.69 µM); MIC ([2]; 72 h, read-out: planktonic MIC): 2 to 16 µg/mL (≈ 1.38 to 11 µM); MIC ([3]; 24 h): > 128 µg/mL; septal mid-line staining [12]: evident; less killing activity against stationary-phase cells compared to exponential-phase cells [13]: approx 2.4 log |
